# Several values for one entry are separate records, joined by “and”; a condition that tells them apart may be missing. Equal values may be shown once.
# Legend:
# [1] = DPPH radical scavenging activity; conditions: 517 nm, 5 min at room temperature
# [2] = ABTS radical scavenging activity; conditions: for ABTS EC50: 732 nm, 6 min; for Fold = IC50 of ascorbic acid/IC50 of compounds 5a–p: ratio of the ABTS values relative to ascorbic acid
# BChE (from equine serum) = BChE (from equine serum) (Equus caballus, UniProt P81908); test: Anticholinesterase assay; format: biochemical; conditions: for IC50: BChE IC50, IC50 ± SEM, Ellman method, 30 min incubation, triplicate
# [3] = biological target: AChE (from Electrophorus electricus) (Electrophorus electricus, UniProt O42275); test: Anticholinesterase assay; format: biochemical
# Sequence of AChE (from Electrophorus electricus) (O42275 24-633): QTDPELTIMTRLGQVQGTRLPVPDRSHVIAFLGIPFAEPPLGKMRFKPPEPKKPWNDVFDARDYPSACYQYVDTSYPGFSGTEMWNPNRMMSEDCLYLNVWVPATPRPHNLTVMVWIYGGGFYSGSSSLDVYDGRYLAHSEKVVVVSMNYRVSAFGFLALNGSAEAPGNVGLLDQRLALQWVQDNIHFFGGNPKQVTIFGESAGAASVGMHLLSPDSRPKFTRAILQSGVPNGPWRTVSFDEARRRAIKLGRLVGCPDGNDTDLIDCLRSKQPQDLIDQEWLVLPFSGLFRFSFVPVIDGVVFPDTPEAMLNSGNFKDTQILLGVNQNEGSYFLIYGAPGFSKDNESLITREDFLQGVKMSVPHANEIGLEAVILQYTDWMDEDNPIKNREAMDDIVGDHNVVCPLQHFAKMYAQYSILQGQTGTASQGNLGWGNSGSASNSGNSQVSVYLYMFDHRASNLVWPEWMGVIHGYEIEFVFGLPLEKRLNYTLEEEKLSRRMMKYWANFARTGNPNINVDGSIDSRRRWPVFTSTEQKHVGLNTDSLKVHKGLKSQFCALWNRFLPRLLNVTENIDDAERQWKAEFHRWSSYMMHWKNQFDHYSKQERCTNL
# Sequence of BChE (from equine serum) (P81908 whole entry): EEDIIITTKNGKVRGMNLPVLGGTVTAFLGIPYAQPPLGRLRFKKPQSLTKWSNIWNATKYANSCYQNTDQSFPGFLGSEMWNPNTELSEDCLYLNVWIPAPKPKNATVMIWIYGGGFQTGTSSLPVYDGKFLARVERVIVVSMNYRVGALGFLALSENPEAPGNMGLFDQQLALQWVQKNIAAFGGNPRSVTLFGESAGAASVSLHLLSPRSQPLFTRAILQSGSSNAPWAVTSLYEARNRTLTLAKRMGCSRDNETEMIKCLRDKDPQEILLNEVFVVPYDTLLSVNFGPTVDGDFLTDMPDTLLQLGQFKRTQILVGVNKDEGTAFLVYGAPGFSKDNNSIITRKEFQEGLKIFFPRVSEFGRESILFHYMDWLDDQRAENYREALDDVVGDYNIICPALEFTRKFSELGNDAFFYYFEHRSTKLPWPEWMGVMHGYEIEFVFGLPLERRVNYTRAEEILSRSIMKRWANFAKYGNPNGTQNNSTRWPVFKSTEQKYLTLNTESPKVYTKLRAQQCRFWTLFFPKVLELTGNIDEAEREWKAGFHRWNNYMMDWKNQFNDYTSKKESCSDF
Structure (SMILES),DPPH EC50 [1] [µg/mL],ABTS EC50 [2] [µg/mL],IC50 (BChE (from equine serum)) [µM],IC50 [3] [µM],Fold = IC50 of ascorbic acid/IC50 of compounds 5a–p [2],times less potent than galantamine against BChE (BChE (from equine serum); IC50 ratio versus galantamine)
"Cc1nn(-c2ccccc2)c2nc3c(cc12)-c1nc(N)c(C#N)c(-c2ccc(Cl)cc2)c1CC3 [5d, 2-Amino-4-(4-chlorophenyl)-10-methyl-8-phenyl-6,8-dihydro-5H-pyrazolo[3,4-j][1,7]phenanthroline-3-carbonitrile]",>100,>100,> 810,–,–,–
"Cc1nn(-c2ccccc2)c2nc3c(cc12)-c1nc(N)c(C#N)c(-c2ccccc2)c1CC3 [5a, 2-Amino-10-methyl-4,8-diphenyl-6,8-dihydro-5H-pyrazolo[3,4-j][1,7]phenanthroline-3-carbonitrile]",>100,>100,> 875,259.87 ± 0.03,–,–
"Cc1ccc(-c2c(C#N)c(N)nc3c2CCc2nc4c(cc2-3)c(C)nn4-c2ccccc2)cc1 [5b, 2-Amino-10-methyl-8-phenyl-4-(p-tolyl)-6,8-dihydro-5H-pyrazolo[3,4-j][1,7]phenanthroline-3-carbonitrile]",>100,98.77,> 847,–,0.28,–
"Cc1nn(-c2ccccc2)c2nc3c(cc12)-c1nc(N)c(C#N)c(-c2ccc4c(c2)OCO4)c1CC3 [5l, 2-Amino-4-(benzo[d][1,3]dioxol-5-yl)-10-methyl-8-phenyl-6,8-dihydro-5H-pyrazolo[3,4-j][1,7]phenanthroline-3-carbonitrile]",>100,>100,119,167.94 ± 0.04,–,15
"Cc1nn(-c2ccccc2)c2nc3c(cc12)-c1nc(N)c(C#N)c(-c2ccc(C#N)cc2)c1CC3 [5h, 2-Amino-4-(4-cyanophenyl)-10-methyl-8-phenyl-6,8-dihydro-5H-pyrazolo[3,4-j][1,7]phenanthroline-3-carbonitrile]",>100,>100,≥ 375,85.48 ± 0.14,–,–
"Cc1nn(-c2ccccc2)c2nc3c(cc12)-c1nc(N)c(C#N)c(-c2ccc([N+](=O)[O-])cc2)c1CC3 [5e, 2-Amino-10-methyl-4-(4-nitrophenyl)-8-phenyl-6,8-dihydro-5H-pyrazolo[3,4-j][1,7]phenanthroline-3-carbonitrile]",26.71,11.51,≥ 375,191.28 ± 0.015,2 and 2.40,–
"Cc1nn(-c2ccccc2)c2nc3c(cc12)-c1nc(N)c(C#N)c(-c2cc4ccccc4nc2Cl)c1CC3 [5f, 2-Amino-4-(2-chloroquinolin-3-yl)-10-methyl-8-phenyl-6,8-dihydro-5H-pyrazolo[3,4-j][1,7]phenanthroline-3-carbonitrile]",>100,3.10,≥ 375,135.33 ± 0.04,9 and 8.91,–
"Cc1nn(-c2ccccc2)c2nc3c(cc12)-c1nc(N)c(C#N)c(-c2ccc(O)cc2)c1CC3 [5g, 2-Amino-4-(4-hydroxyphenyl)-10-methyl-8-phenyl-6,8-dihydro-5H-pyrazolo[3,4-j][1,7]phenanthroline-3-carbonitrile]",>100,<3,–,–,more than nine times,–
"CCOc1nc2c(c(-c3ccccc3)c1C#N)CCc1nc3c(cc1-2)c(C)nn3-c1ccccc1 [5p, 2-Ethoxy-10-methyl-4,8-diphenyl-6,8-dihydro-5H-pyrazolo[3,4-j][1,7]phenanthroline-3-carbonitrile]",>100,>100,≥ 375,329.67 ± 0.01,–,–
"COc1cc(-c2c(C#N)c(N)nc3c2CCc2nc4c(cc2-3)c(C)nn4-c2ccccc2)cc(OC)c1OC [5j, 2-Amino-10-methyl-8-phenyl-4-(3,4,5-trimethoxyphenyl)-6,8-dihydro-5H-pyrazolo[3,4-j][1,7]phenanthroline-3-carbonitrile]",>100,>100,≥ 375,224.54 ± 0.018,–,–
"O=C1O[C@H]([C@@H](O)CO)C(O)=C1O [Ascorbic acid, reference compound]",1.5 ± 0.2,27.62 ± 3.5,–,–,1,–

# From article PMC9671100 (RSC Advances, 2022)
